According to ChEMBL document CHEMBL4699563, “Synthesis and evaluation of etoposide and podophyllotoxin analogs against topoisomerase IIα and HCT-116 cells” (2020):
Active and inactive are the calls of the source. The rule behind the calls is not given here.

How the values were obtained:
A549 [1] = test: Cytotoxicity against human A549 cells assessed as reduction in cell viability after 72 hrs by Alamar blue assay; assay type: functional; details: read-out: LD50 (the source's name)
HCT-116 [2] = test: Cytotoxicity against human HCT-116 cells assessed as reduction in cell viability after 72 hrs by Alamar blue assay; assay type: functional; details: read-out: LD50 (the source's name)
[3] = target: DNA topoisomerase 2-alpha (Homo sapiens) (UniProt P11388); test: Inhibition of wild type human topoisomerase-2alpha expressed in Saccharomyces cerevisiae JEL1deltatop1 assessed as inhibition of supercoiled DNA relaxation at 100 to 200 uM using negatively supercoiled pBRDNA as substrate incubated for 15 mins in presence of ATP by gel electrophoresis; details: dose microM 100-200, time 15.0 min
[4] = target: DNA topoisomerase 2-alpha (Homo sapiens) (UniProt P11388); test: Inhibition of wild type human topoisomerase-2alpha expressed in Saccharomyces cerevisiae JEL1deltatop1 assessed as induction of supercoiled DNA cleavage at 200 uM using negatively supercoiled pBRDNA as substrate incubated for 30 mins by gel electrophoresis
A549 [5] = test: Antiproliferative activity against human A549 cells assessed as inhibition of cell proliferation after 48 hrs by MTT assay; assay type: functional; details: read-out: LD50 (the source's name)
[6] = target: DNA topoisomerase 2-alpha (Homo sapiens) (UniProt P11388); test: Inhibition of wild type human topoisomerase-2alpha expressed in Saccharomyces cerevisiae JEL1deltatop1 assessed as induction of supercoiled DNA cleavage at 100 to 200 uM using negatively supercoiled pBRDNA as substrate incubated for 30 mins by gel electrophoresis; details: dose microM 100-200, time 30.0 min
HCT-116 [7] = test: Cell cycle arrest in human HCT-116 cells assessed as decrease in cell population at S phase after 48 hrs by propidium iodide staining based flow cytometry analysis; assay type: functional
HCT-116 [8] = test: Cell cycle arrest in human HCT-116 cells assessed as accumulation at sub-G1 phase after 48 hrs by propidium iodide staining based flow cytometry analysis; assay type: functional
[9] = target: DNA topoisomerase 2-alpha (Homo sapiens) (UniProt P11388); test: Inhibition of wild type human topoisomerase-2alpha expressed in Saccharomyces cerevisiae JEL1deltatop1 assessed as induction of supercoiled DNA cleavage using negatively supercoiled pBRDNA as substrate incubated for 30 mins by gel electrophoresis; details: dose microM 100-200, time 30.0 min

Sequence of DNA topoisomerase 2-alpha (Homo sapiens) (P11388 whole entry): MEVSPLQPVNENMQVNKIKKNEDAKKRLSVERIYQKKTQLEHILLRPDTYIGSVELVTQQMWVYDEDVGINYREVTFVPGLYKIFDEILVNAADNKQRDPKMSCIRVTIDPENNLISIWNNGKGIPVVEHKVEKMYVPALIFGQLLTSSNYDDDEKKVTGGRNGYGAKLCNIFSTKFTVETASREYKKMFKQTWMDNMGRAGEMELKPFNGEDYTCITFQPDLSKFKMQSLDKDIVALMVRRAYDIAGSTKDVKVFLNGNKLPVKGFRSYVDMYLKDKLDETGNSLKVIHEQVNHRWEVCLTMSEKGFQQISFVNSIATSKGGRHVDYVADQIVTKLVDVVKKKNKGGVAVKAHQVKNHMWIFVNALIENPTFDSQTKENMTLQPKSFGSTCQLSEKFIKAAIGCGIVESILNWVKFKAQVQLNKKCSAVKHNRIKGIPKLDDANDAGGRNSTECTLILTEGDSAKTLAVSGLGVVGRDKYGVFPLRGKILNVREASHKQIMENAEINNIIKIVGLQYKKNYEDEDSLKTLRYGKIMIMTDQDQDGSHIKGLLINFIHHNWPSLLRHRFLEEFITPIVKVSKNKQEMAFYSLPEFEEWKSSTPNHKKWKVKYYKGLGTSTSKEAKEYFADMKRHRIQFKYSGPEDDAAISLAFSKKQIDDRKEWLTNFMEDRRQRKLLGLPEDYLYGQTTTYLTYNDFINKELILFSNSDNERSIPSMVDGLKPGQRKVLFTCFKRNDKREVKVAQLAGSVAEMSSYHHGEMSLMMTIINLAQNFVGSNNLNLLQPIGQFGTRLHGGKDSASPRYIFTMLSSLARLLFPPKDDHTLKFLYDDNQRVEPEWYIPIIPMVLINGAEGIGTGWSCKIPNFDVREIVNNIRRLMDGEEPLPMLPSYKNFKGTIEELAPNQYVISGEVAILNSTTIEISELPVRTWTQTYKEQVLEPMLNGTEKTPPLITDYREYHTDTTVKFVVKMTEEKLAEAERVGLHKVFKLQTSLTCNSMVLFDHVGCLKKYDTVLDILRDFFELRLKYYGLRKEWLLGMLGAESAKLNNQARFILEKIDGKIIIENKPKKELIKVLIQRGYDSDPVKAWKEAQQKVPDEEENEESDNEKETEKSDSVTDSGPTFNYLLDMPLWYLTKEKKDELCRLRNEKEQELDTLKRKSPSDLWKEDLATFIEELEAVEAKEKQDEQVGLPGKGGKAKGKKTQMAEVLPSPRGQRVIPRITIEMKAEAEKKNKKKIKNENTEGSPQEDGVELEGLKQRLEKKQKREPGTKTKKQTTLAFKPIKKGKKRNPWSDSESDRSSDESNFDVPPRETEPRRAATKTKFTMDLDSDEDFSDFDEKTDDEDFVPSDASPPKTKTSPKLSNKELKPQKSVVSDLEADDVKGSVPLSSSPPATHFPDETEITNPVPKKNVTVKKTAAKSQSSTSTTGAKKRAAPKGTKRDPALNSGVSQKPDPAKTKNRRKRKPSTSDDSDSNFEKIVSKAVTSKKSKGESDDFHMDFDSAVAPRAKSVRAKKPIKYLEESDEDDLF

For `COc1cc([C@@H]2c3cc4c(cc3[C@@H](O)[C@H]3COC(=O)[C@H]23)OCO4)c(Cl)c(OC)c1O`, the CC50 (A549 [1]) was 35 µM, the CC50 (HCT-116 [2]) was 33 µM and the inhibition [3] was “Active”. The Activity [4] was “Active”.

In the case of `COc1cc([C@@H]2c3cc4c(cc3[C@@H](O[C@@H]3O[C@@H]5CO[C@@H](C)O[C@H]5[C@H](O)[C@H]3O)[C@H]3COC(=O)[C@H]23)OCO4)cc(OC)c1O` [ETOPOSIDE], the CC50 (HCT-116 [2]) is reported as 1.6 µM and the CC50 (A549 [5]) is reported as 11.8 µM.

With `COc1cc([C@@H]2c3cc4c(cc3[C@H](O)[C@H]3COC(=O)[C@H]23)OCO4)cc(OC)c1OC` the inhibition [3] was “inactive”.

With `COc1cc([C@@H]2c3cc4c(cc3[C@H](O)[C@H]3COC(=O)[C@H]23)OCO4)c(Br)c(OC)c1OC` the inhibition [3] was “inactive”.

For `COc1cc([C@@H]2c3cc4c(cc3[C@H](O)[C@H]3COC(=O)[C@H]23)OCO4)c(Cl)c(OC)c1OC`, the inhibition [3] was “inactive”.

In the case of `COc1c(Cl)c([C@@H]2c3cc4c(cc3[C@H](O)[C@H]3COC(=O)[C@H]23)OCO4)c(Cl)c(OC)c1OC`, the CC50 (A549 [1]) is reported as 17 µM, the CC50 (HCT-116 [2]) is reported as 20 µM and the inhibition [3] is reported as “Active”. The Activity [6] was “Active”, the Activity (HCT-116 [7]) was “Active” and the Activity (HCT-116 [8]) was “Active”.

For `COc1cc([C@@H]2c3cc4c(cc3[C@@H](O[C@@H]3O[C@@H]5CO[C@@H](C)O[C@H]5[C@H](O)[C@H]3O)[C@H]3COC(=O)[C@H]23)OCO4)c(Cl)c(OC)c1O`, the CC50 (HCT-116 [2]) was 120 µM, the inhibition [3] was “Active” and the Activity [6] was “Active”. For the same compound, the Activity (HCT-116 [7]) was “Active”, the Activity (HCT-116 [8]) was “Active” and the Activity [9] was “Active”.
